Test system: TNF-α and IL-1 secretion
Assay: investigated assays, not said which: TNF-α and IL-1 secretion in human PBMC, in mouse peritoneal macrophages, LPS-induced secretion in mice, writhing assay, LPS-induced shock in mice
Settings: active means: PBMC IC50 20 μM or lower; mouse macrophages IC50 10 μM or lower; 30% or more TNF-α inhibition at 10 mg/kg; analgetic activity as acetylsalicylic acid or better; survival 40% or more at 30 mg/kg
Method: The inhibitory action of the present compounds upon TNF-α and IL-1 secretion was determined by the following in vitro and in vivo experiments:
Determination of TNF-α and IL-1 Secretion in Human Peripheral Blood Mononuclear Cells in vitro
Human peripheral blood mononuclear cells (PBMC) were prepared from heparinized whole blood after separating PBMC on Ficoll-Paque™Plus (Amersham-Pharmacia). […] The IL-1 level was determined in an assay under the same conditions and with the same number of cells and the same concentration of the stimulus by ELISA procedure (R&D Systems). The percentage of inhibition of TNF-α or IL-1 production was calculated by the equation: % inhibition=[1−(TS−NC)/(PC−NC)]*100. […]
In order to obtain peritoneal macrophages, Balb/C mouse strain males, age 8 to 12 weeks, were injected i.p. with 300 μg of zymosan (SIGMA) dissolved in a phosphate buffer (PBS) in a total volume of 0.1 ml/mouse. […] The TNF-α level in the cell supernatant was determined by ELISA procedure (R&D Systems, Biosource). IL-1 level was determined in an assay, identical to an assay for TNF-a by ELISA procedure (R&D Systems). The percentage of inhibition of TNF-α or IL-1 production was calculated by the equation: % inhibition=[1−(TS−NC)/(PC−NC)]*100. […]

SMILES | activity in the investigated assays
CCOC(=O)c1cc2c(s1)-c1ccc(OCCN3CCCC3)cc1Oc1ccccc1-2 [Example 4, 10-(2-Pyrrolidin-1-yl-ethoxy)-8-oxa-1-thia-dibenzo[e,h]azulene-2-carboxylic acid ethyl ester] | activity in at least two investigated assays
CN(C)CCCOCc1cc2c(s1)-c1ccc(OCCCN(C)C)cc1Oc1ccccc1-2 [Example 14, {3-[2-(3-Dimethylamino-propoxymethyl)-8-oxa-1-thia-dibenzo[e,h]azulene-10-yloxy]-propyl}-dimethyl-amine] | activity in at least two investigated assays

From patent US20060069149A1, “Thiadibenzoazulene derivatives for the treatment of inflammatory diseases” (Pliva-Istrazivacki Institut d.o.o., priority 2003, published 2006)
